The results in this text go back to patent US20220380338A1, “CYCLOALKYL 3-OXOPIPERAZINE CARBOXAMIDES AND CYCLOHETEROALKYL 3-OXOPIPERAZINE CARBOXAMIDES AS NAV1.8 INHIBITORS” (Merck Sharp & Dohme LLC, priority 2021, published 2022).

The target in this assay is T1, human NaV1.8 (Homo sapiens, UniProt Q9Y5Y9).
T1 construct: expressed in transfected cells
T1 sequence (Q9Y5Y9 whole entry): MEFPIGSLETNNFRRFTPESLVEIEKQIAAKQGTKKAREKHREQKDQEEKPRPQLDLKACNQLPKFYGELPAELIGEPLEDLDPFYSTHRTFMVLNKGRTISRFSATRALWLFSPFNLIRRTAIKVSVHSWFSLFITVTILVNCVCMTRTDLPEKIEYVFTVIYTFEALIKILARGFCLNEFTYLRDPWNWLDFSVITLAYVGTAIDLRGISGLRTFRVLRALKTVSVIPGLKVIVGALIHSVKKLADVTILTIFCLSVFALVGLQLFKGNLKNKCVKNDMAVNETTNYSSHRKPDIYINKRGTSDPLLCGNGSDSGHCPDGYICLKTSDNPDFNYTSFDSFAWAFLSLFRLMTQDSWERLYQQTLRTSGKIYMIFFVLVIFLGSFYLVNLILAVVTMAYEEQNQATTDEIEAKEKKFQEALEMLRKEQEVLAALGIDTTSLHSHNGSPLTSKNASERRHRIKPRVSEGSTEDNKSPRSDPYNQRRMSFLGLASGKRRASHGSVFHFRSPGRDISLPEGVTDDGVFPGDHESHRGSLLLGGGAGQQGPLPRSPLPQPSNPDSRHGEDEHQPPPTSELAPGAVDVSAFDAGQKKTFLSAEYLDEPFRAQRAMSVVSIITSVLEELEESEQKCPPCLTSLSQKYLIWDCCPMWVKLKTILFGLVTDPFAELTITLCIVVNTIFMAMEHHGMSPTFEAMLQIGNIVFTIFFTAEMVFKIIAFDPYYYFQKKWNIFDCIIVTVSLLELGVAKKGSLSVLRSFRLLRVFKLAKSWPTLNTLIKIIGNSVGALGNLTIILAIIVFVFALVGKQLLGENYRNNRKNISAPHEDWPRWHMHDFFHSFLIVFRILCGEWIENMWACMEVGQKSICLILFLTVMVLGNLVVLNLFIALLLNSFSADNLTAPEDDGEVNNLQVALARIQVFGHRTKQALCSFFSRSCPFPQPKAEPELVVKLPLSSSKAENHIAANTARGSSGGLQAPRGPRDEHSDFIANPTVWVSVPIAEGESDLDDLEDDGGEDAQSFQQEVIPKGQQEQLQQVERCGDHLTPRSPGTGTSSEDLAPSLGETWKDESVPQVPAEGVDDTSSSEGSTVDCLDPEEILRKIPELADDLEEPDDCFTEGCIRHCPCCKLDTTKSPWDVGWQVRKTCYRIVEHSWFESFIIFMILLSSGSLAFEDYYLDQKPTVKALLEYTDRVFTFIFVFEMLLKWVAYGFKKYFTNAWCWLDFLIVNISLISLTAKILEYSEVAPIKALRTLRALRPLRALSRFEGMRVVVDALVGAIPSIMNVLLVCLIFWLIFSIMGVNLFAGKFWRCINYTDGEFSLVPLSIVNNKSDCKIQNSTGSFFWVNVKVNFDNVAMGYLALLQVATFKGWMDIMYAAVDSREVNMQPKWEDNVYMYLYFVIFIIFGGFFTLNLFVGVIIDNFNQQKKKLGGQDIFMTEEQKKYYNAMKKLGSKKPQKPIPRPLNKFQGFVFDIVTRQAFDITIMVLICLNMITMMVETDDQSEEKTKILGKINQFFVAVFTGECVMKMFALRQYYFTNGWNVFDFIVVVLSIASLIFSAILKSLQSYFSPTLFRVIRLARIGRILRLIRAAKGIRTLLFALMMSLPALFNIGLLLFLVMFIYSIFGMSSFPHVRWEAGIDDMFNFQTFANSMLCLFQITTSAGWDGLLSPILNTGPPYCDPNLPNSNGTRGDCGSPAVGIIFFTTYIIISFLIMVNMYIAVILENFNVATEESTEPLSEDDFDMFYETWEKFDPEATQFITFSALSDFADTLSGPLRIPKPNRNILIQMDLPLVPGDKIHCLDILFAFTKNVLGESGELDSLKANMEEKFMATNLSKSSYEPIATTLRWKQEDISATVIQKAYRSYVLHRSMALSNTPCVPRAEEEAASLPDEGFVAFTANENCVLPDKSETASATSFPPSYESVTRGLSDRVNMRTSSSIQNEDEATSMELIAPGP
The experiment in a line: Nav1.8 Qube® Assay (automated 384-well patch-clamp, inhibition of sodium current). The settings on record: human NaV1.8 channels stably expressed in HEK 293 cells, room temperature. The class given is cell-based. The method, boiled down:
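Whole-cell voltage clamp at room temperature in HEK293 cells stably expressing NaV1.8; from −90 mV hold, 10 s 1 Hz train of 20 ms pulses to 10 mV with 980 ms repolarization to −67 mV. Peak currents of 1st and 10th pulses give resting and inactivated-state IC50s, Hill fit.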
(In general: The patch-clamp technique gives a direct electrical read-out from membranes.)
Usually IC50 stands for the point on the concentration scale where inhibition reaches its midpoint. Low values mean higher potency, high ones lower potency. `C[C@@H]1C(=O)NCCN1C(=O)NC(c1ccc(OC(F)(F)F)cc1F)[C@H]1C[C@H](C(F)(F)F)C1` (single isomer, unassigned) [Example 50B, (2R)-N-((S or R)-(2-fluoro-4-(trifluoro-methoxy)phenyl)(trans-3-(trifluoro-methyl)-cyclobutyl)-methyl)-2-methyl-3-oxopiperazine-1-carboxamide] showed a concentration for half-maximal inhibition (IC50) of 9.01 nM. Turning to `C[C@@H]1C(=O)NCCN1C(=O)NC(c1ccc(F)c(C(F)(F)F)c1)[C@H]1C[C@H](C(F)(F)F)C1` (single isomer, unassigned) [Example 51A, (2R)-N-((R or S)-(4-fluoro-3-(trifluoro-methyl)phenyl)(trans-3-(trifluoro-methyl)-cyclo-butyl)methyl)-2-methyl-3-oxo-piperazine-1-carboxamide], the midpoint of inhibition, the IC50, lay at 117 nM.

As for `C[C@@H]1C(=O)NCCN1C(=O)NC(c1ccc(F)c(C(F)(F)F)c1)[C@H]1C[C@H](C(F)(F)F)C1` (single isomer, unassigned) [Example 51B, (2R)-N-((S or R)-(4-fluoro-3-(trifluoro-methyl)phenyl)(trans-3-(trifluoro-methyl)-cyclobutyl)methyl)-2-methyl-3-oxopiperazine-1-carboxamide], the IC50 is 3.03 nM. In the case of `O=C1CN(C(=O)NC(c2ccc(F)c(C(F)(F)F)c2)[C@H]2C[C@H](C(F)(F)F)C2)CCN1` (single isomer, unassigned) [Example 52A, N-((R or S)-(4-fluoro-3-(trifluoromethyl)phenyl) (trans-3-(trifluoro-methyl)cyclobutyl)-methyl)-3-oxo-piperazine-1-carboxamide] it was 320 nM. The result for `O=C1CN(C(=O)NC(c2ccc(F)c(C(F)(F)F)c2)[C@H]2C[C@H](C(F)(F)F)C2)CCN1` (single isomer, unassigned) [Example 52B, N-((S or R)-(4-fluoro-3-(trifluoromethyl)phenyl) (trans-3-(trifluoro-methyl)cyclobutyl)-methyl)-3-oxo-piperazine-1-carboxamide] reads 11.8 nM. The result for `C[C@@H]1C(=O)NCCN1C(=O)NC(c1cccc(Cl)c1F)[C@H]1C[C@H](C(F)(F)F)C1` (single isomer, unassigned) [Example 53A, (2R)-N-((R or S)-(3-chloro-2-fluorophenyl)-(trans-3-(trifluoro-methyl)cyclobutyl)meth-yl)-2-methyl-3-oxo-piperazine-1-carboxamide] reads 538 nM; that for `C[C@@H]1C(=O)NCCN1C(=O)NC(c1cccc(Cl)c1F)[C@H]1C[C@H](C(F)(F)F)C1` (single isomer, unassigned) [Example 53B, (2R)-N-((S or R)-(3-chloro-2-fluorophenyl)-(trans-3-(trifluoro-methyl)cyclobutyl)meth-yl)-2-methyl-3-oxo-piperazine-1-carboxamide], 9.06 nM. `C[C@@H]1C(=O)NCCN1C(=O)NC(c1ccc(OC(F)(F)F)c(Cl)c1)C1CC(C(F)(F)F)C1` (single isomer, unassigned) [Example 54A, (2R)-N-((R or S)-(3-chloro-4-(trifluoro-methoxy)phenyl)(3-(trifluoromethyl)cyclo-butyl)methyl)-2-methyl-3-oxopiperazine-1-carboxamide] yielded a concentration for half-maximal inhibition (IC50) of 1.7 nM. In the case of `C[C@@H]1C(=O)NCCN1C(=O)NC(c1ccc(OC(F)(F)F)c(Cl)c1)C1CC(C(F)(F)F)C1` (single isomer, unassigned) [Example 54B, (2R)-N-((S or R)-(3-chloro-4-(trifluoro-methoxy)phenyl)(3-(trifluoromethyl)cyclo-butyl)methyl)-2-methyl-3-oxopiperazine-1-carboxamide] it was 4.18 nM; in that of `C[C@@H]1C(=O)NCCN1C(=O)NC(c1csc(C(F)(F)F)n1)[C@H]1CC[C@H](C(F)(F)F)CC1` (single isomer, unassigned) [Example 55A], 494 nM; in that of `C[C@@H]1C(=O)NCCN1C(=O)NC(c1csc(C(F)(F)F)n1)[C@H]1CC[C@H](C(F)(F)F)CC1` (single isomer, unassigned) [Example 55B], 26.3 nM. The result for `C[C@@H]1C(=O)NCCN1C(=O)NC(c1ccc(F)c(Cl)c1F)[C@H]1C[C@@H]1C(F)(F)F` (single isomer, unassigned) [Example 57C] reads 566 nM; that for `C[C@@H]1C(=O)NCCN1C(=O)NC(c1ccc(F)c(Cl)c1F)[C@H]1C[C@@H]1C(F)(F)F` (single isomer, unassigned) [Example 57D], 12 nM; that for `C[C@@H]1C(=O)NCCN1C(=O)NC(c1ccc(F)c(Cl)c1F)C1CCC(C(F)(F)F)C1` (single isomer, unassigned) [Example 58A, (2R)—N—((R or S)-(3-chloro-2,4-difluorophenyl)(cis-3-(trifluoromethyl)cyclopentyl)methyl)-2-methyl-3-oxopiperazine-1-carboxamide], 9.23 nM. Compound `C[C@@H]1C(=O)NCCN1C(=O)NC(c1ccc(F)c(Cl)c1F)C1CCC(C(F)(F)F)C1` (single isomer, unassigned) [Example 58B, (2R)—N—((R or S)-(3-chloro-2,4-difluorophenyl)(cis-3-(trifluoromethyl)cyclopentyl)methyl)-2-methyl-3-oxopiperazine-1-carboxamide] had a half-maximal inhibitory concentration (IC50) of 5.65 nM. The result for `C[C@@H]1C(=O)NCCN1C(=O)NC(c1ccc(F)c(Cl)c1F)C1CCC(C(F)(F)F)C1` (single isomer, unassigned) [Example 58C, (2R)—N—((R or S)-(3-chloro-2,4-difluorophenyl)(trans-3-(trifluoromethyl)cyclopentyl)methyl)-2-methyl-3-oxopiperazine-1-carboxamide] reads 5.1 nM; that for `C[C@@H]1C(=O)NCCN1C(=O)NC(c1ccc(F)c(Cl)c1F)C1CCC(C(F)(F)F)C1` (single isomer, unassigned) [Example 58D, (2R)—N—((R or S)-(3-chloro-2,4-difluorophenyl)(trans-3-(trifluoromethyl)cyclopentyl)methyl)-2-methyl-3-oxopiperazine-1-carboxamide], 6.03 nM.

As for `[2H]C1([2H])NC(=O)C(C)N(C(=O)N[C@H](c2ccc(F)c(Cl)c2F)[C@H]2C[C@H](C(F)(F)F)C2)C1([2H])[2H]` (single isomer, unassigned) [Example 59A, (R or S)—N—((S)-(3-chloro-2,4-difluorophenyl)((trans)-3-(trifluoromethyl)cyclobutyl)methyl)-2-methyl-3-oxopiperazine-5,5,6,6-d4-1-carboxamide], 2.6 nM corresponded to half-maximal inhibition (IC50). The result for `[2H]C1([2H])NC(=O)C(C)N(C(=O)N[C@H](c2ccc(F)c(Cl)c2F)[C@H]2C[C@H](C(F)(F)F)C2)C1([2H])[2H]` (single isomer, unassigned) [Example 59B, (S or R)—N—((S)-(3-chloro-2,4-difluorophenyl)((trans)-3-(trifluoromethyl)cyclobutyl)methyl)-2-methyl-3-oxopiperazine-5,5,6,6-d4-1-carboxamide] reads 44 nM. The result for `C[C@@H]1C(=O)NCCN1C(=O)NC(c1ccc(F)c(C(F)(F)F)c1)C1CCC(C(F)(F)F)OC1` (single isomer, unassigned) [Example 60A, (2R)—N-((1(R or S))-(4-fluoro-3-(trifluoromethyl)phenyl)-trans-(6-(trifluoromethyl)tetrahydro-2H-pyran-3-yl)methyl)-2-methyl-3-oxopiperazine-1-carboxamide] reads 10.1 nM.
